Measured values from PMC7285002, “Enhanced Oral Bioavailability of the Pharmacologically Active Lignin Magnolol via Zr-Based Metal Organic Framework Impregnation” (Pharmaceutics, 2020).
Read-outs that look alike come from different tables or passages of the source.

Tests used:
[1] = low bioavailability of magnolol, stated in the abstract without reference; cited from earlier work
[2] = Tissue distribution of unconjugated magnolol; assay type: in vivo; details: Sprague-Dawley (SD), rat, 1 h after oral 50 mg kg^−1, male SD rats
Description: (§1) The determination of the bioavailability of magnolol and its tissue distribution to the brain, liver, and kidney was done according to the method of Ding et al. (2018), Higashi (2015), Lin et al. (2011), and Kotani et al. (2005).
After one hour of administration, the animals were euthanized in a carbon dioxide chamber and their organs (brain, liver, and kidney) were collected. The organs were weighed and homogenized in 10 mL of acetonitrile, and centrifuged at 10,000 rpm for 10 min. The supernatant was dried under reduced pressure.
(§2) Samples were reconstituted with acetonitrile prior to HPLC analysis. The samples were injected into the HPLC (n = 3). The quantity of magnolol was computed using a standard calibration curve.

[3] = system: female Sprague Dawley rats; assay: Acute oral toxicity (OECD 425, limit test); assay type: in vivo
Description: Animal toxicity test was done in accordance with the Organization for Economic Cooperation and Development guidelines for testing chemical compounds using the up and down method (OECD procedure 425). Prior to dosing, 2 mL of blood was extracted through tail clipping and was submitted for alanine aminotransferase (ALT) and creatinine level determinations for signs of liver and kidney damages, respectively. […] In cases where the first animal survived, an additional four rats were subjected to the same dose. […] An additional rat was administered with the solvent only to compare the variation in the animal species. Test animals that survived in the 14-day observation were euthanized in a carbon dioxide chamber followed by the harvesting of blood, liver and kidney of all test animals. The blood was once again submitted for ALT and creatinine level determination. The organs were submitted for tissue mounting and histopathological evaluation.

[4] = Oral bioavailability / pharmacokinetic study (serum magnolol by HPLC); assay type: in vivo; details: Sprague-Dawley (SD), rat, 100 mg kg^−1, male SD rats; for AUC(0-t): read-out: AUC0–720 (converted); for half-life: male, 100 mg/kg
Description: as §1
For the pharmacokinetic study, male SD rats were randomly divided into 4 groups (n = 3). […] Blood samples (approximately 200 to 250 µL) were collected at predetermined time points (15, 30, 60, 120, 180, 240, 480, and 720 min) and allowed to clot and centrifuged at 4000 rpm at 4 °C for 5 min to obtain the serum. The obtained sera were treated with equal amount of acetonitrile and then centrifuged again to obtain the protein-free sera.
as §2

With `C=CCc1ccc(O)c(-c2cc(CC=C)ccc2O)c1` [Magnolol, 4-Allyl-2-(5-allyl-2-hydroxy-phenyl)phenol] as the molecule, how does the bioavailability [1] read?
Its bioavailability is 4–5%.

What about the concentration at 1 h ([2]; brain, read-out: mean magnolol concentration, Brain) of the same molecule?
Its concentration at 1 h is 374 ± 22 ng/g.

And the concentration at 1 h ([2]; kidney, read-out: mean magnolol concentration, Kidneys)?
The concentration at 1 h was 3740 ± 890 ng/g.

And the concentration at 1 h ([2]; liver, read-out: mean magnolol concentration, Liver)?
Its concentration at 1 h is 790 ± 180 ng/g.

What about the “survival after limit dose” value ([3]; 2000 mg kg^−1 oral, female SD rats, 14 days) of the same molecule?
Its value is “All test animals survived”.

And the “mean serum ALT level, before vs after administration” value ([3]; 2000 mg kg^−1 oral, paired t-test)?
The value was “no significant difference”.

What about the “median lethal dose (LD50)” value ([3]; oral gavage, female SD rats, 14-day observation, assumed from limit test) of the same molecule?
Its value is “greater than 2000 mg kg^−1”.

And the AUC(0-inf) ([4]; IP (intraperitoneal route))?
Its AUC(0-inf) is 66.9 µg·h/mL.

And the Cmax ([4]; IP (intraperitoneal route))?
Its Cmax is 5.1 ± 0.65 µg/mL.

What about the Tmax ([4]; IP (intraperitoneal route)) of the same molecule?
Its Tmax is 64.1 min.

What about the AUC(0-t) ([4]; IP (intraperitoneal route)) of the same molecule?
Its AUC(0-t) is 43 µg·h/mL.

And the AUC(0-inf) ([4]; PO (oral route))?
Its AUC(0-inf) is 15.1 µg·h/mL.

And the Cmax ([4]; PO (oral route))?
Its Cmax is 2.57 ± 0.26 µg/mL.

And the Tmax ([4]; PO (oral route))?
Its Tmax is 55.8 min.

What about the AUC(0-t) ([4]; PO (oral route)) of the same molecule?
Its AUC(0-t) is 13.7 µg·h/mL.

And the half-life ([4]; ip, IP (intraperitoneal route), read-out: Abs T1/2 (absorption half-life))?
The half-life was 17.1 ± 3.63 min.

What about the half-life ([4]; ip, IP (intraperitoneal route), read-out: T1/2 (elimination half-life)) of the same molecule?
The half-life was 461 ± 37.4 min.

What about the half-life ([4]; po, PO (oral route), read-out: Abs T1/2 (absorption half-life)) of the same molecule?
The half-life was 23.3 ± 3.16 min.

What about the half-life ([4]; po, PO (oral route), read-out: T1/2 (elimination half-life)) of the same molecule?
Its half-life is 100 ± 20.4 min.
